Where “and” joins values, the source holds several entries; their conditions need not be identical. Identical values can stand only once.
Assay: Oral administration of rhGH with delivery agent or conjugate in rats, serum rhGH by immunoassay
Format: in vivo, Sprague-Dawley rats
Settings: individual rat, 200 mg/kg conjugate = 20 mg/kg delivery agent
Protocol: Oral gavage (PO) and/or intracolonic (IC) dosing solutions of delivery agent compound and rhGH in water, phosphate buffer (PB) or 5% aqueous ethanol were prepared. Typically, a solution of the conjugate was prepared by mixing in water and stirred. The final dosing solutions were prepared by mixing the conjugate solution with an rhGH stock solution (typically 15 mg rhGH/ml) and diluting to the desired volume (usually 3.0 ml). The compounds and rhGH dose amounts are listed below in Table 1.
Male Sprague-Dawley rats weighing between 200-250 g were fasted for 24 hours and administered ketamine (44 mg/kg) and chlorpromazine (1.5 mg/kg) 15 minutes prior to dosing. A dosing group of five rats was administered one of the dosing solutions. For oral gavage (PO), an […] Rusch 8 French catheter was adapted to a 1 ml syringe with a pipette tip. The syringe was filled with dosing solution by drawing the solution through the catheter, which was then wiped dry. The catheter was placed down the esophagus leaving 1 cm of tubing past the rat's incisors. Solution was administered by pressing the syringe plunger. For intracolonic (IC) dosing, a 7.5 cm Rusch catheter tube (French 8 or 6) was adapted to a syringe with an Eppendorf pipette tip. The syringe was filled with the 0.5 ml dosing solution by drawing the solution through the catheter tube. The catheter tube was wiped dry. K-Y jelly was applied to the tip, avoiding contact with the eye of the tube, and the tube was inserted into the colon through the anus until the tube was no longer visible. The solution was injected by pressing the syringe plunger, and the tube was removed.
Blood samples were collected serially from the tail artery, typically at time=0, 15, 30, 45, 60 and 90 minutes for oral and 0, 10, 20, 30, 60 and 90 for IC dosing. Serum rHGH concentrations were quantified by an rHGH immunoassay test kit (Kit # K1F4015 from Genzyme Corporation Inc., Cambridge, Mass.). Previous studies indicated baseline values of about zero.
The experiments were performed at 1/10 the delivery agent concentration versus that of the conjugate. Thus, at a dose of 200 mg/kg conjugate, the actual amount of delivery agent dosed was 20 mg/kg.

With `O=C(O)CCCCCCCNC(=O)c1ccccc1O` [delivery agent I] as the compound, how does the “Serum rhGH concentration, Min15” value (15 min, listed as (a)) read?
The value was 45.34 and 0 and 64.2 and 43.14 and 84.73 and 79.98 and 48.72.

What about the “Serum rhGH concentration, Min30” value (30 min, listed as (a)) of the same compound?
Its value is 46.52 and 58.44 and 18.99 and 23.44 and 13.19 and 22.69 and 1.82.

What about the “Serum rhGH concentration, Min45” value (45 min, listed as (a)) of the same compound?
The value was 35.53 and 0 (4×) and 4.29 and 18.35.

What about the “Serum rhGH concentration, Min60” value (60 min, listed as (a)) of the same compound?
The value was 34.885 and 3.922 and 10.13 and 15.93 and 10.565 and 5.49 and 7.905.

What about the “Serum rhGH concentration, Min90” value (90 min, listed as (a)) of the same compound?
The value was 2.715 and 0 (5×) and 1.47.

And the “Serum rhGH concentration, Base line” value (baseline (time 0))?
The value was 0.

From patent US7727558B2, “Polymeric delivery agents and delivery agent compounds” (Emisphere Technologies, Inc., priority 1999, dated 2010)
